Laboratory results reported in publication PMC5740082, “Identification of a CARM1 Inhibitor with Potent In Vitro and In Vivo Activity in Preclinical Models of Multiple Myeloma” (Scientific Reports, 2017).
Read-outs that look alike come from different tables or passages of the source.

What was measured:
Hepatocyte stability = format: in vitro ADME; conditions: 1 µM
Protocol: Hepatocyte stability, plasma protein binding and cytochrome P450 assays were performed using standard procedures. Details can be found in Supplementary Methods. […]
where K I and K J are th e inhibition constants for I and J , respectivel y, and alpha is a constant describing the effect of one inhibitor on the binding of another inhibitor 8.
Reversibility experiments were performed in assay buffer lacking bovine skin gelatin. CARM1 […]
mixture was purified using pre-equilibrated 0.5 mL Zeba (7MWCO) spin columns (Thermo Fisher) following manufacturer ’s instructions. CARM1 was diluted to 0.5 nM in an assay reaction mixture using previously described conditions and activity was measured over 2 hours.
Proteins were kept at 4 °C for further activit y testing. Similar results were also obtained when […]
Methyltransf erase cros s screening panel […]
gen eral p rocedu res f rom Knutson et al.9
In cell w estern assay f or detection of asymmetric di -methyl PABP1 an d DNA content RKO cells (ATCC) were maintained in growth medium (DMEM/Glutamax medium supplemented with 10% v/v heat inactivated fetal bovine serum and 100 units/mL penicillin-streptom ycin) and cultured at 37 °C under 5% CO2. Cells were seeded in assay medium at a concentration of 30,000 cells per m L to a pol y -D-l ys ine coated 384 well culture plate with 50 µ L per well. […]

[1] = Pharmacokinetic study in mouse
Protocol: An additional group of rats, cannulated in both the jugular and portal veins were dosed by oral gavage (10 mg/kg, in 0.5% methylcellulose in water). Approximately 110 μL of blood was taken from the animals by retro-orbital bleeding (mouse), tail vein (rat i.v.) or both jugular and portal vein sampling (rat p.o.) at pre-specified time intervals. The 2 h samples were split for parallel determination of blood and plasma concentration (ex vivo ratio). Blood samples were collected into K2-EDTA tubes and centrifuged to obtain plasma.

[2] = tested on: PABP1 and SmB methylation in U266B1 cells; experiment: Western blot of cellular methyl marks, U266B1; conditions: 96 h
Protocol: Methylation changes were measured at the well-characterized CARM1 substrates PABP1 and SmB[1],[10]. Changes in overall levels of asymmetric dimethyl arginine (aDMA) were assessed with an antibody that detects a generic aDMA motif. Levels of methylated analytes were quantified by densitometry and ratios of methylated to total protein were calculated to determine the cell biochemical IC50 values.
Cultured cells in linear/log phase growth were split to a seeding density of 2e5 cells/mL in 2–20mLs of media, depending on the yield required at the end of the growth period. Compound was diluted in DMSO and added to each culture vessel with a final DMSO concentration of 0.2%. Cells were allowed to grow for 96 hours. At the conclusion of each treatment period, cells were harvested by centrifugation (5 minutes, 1200 rpm), and cell pellets were rinsed once with PBS before being frozen on dry ice pending further processing.
Quantification of Western blots was performed using infra-red emitting secondary antibodies and detection with an ODYSSEY infrared imaging system.

[3] = male, CD-1, mouse, plasma, iv, 2 mg/kg
[4] = male, CD-1, mouse, plasma, po, 10 mg/kg

CNC[C@@H](O)COc1ccc(Cl)c(-c2nc(-c3c(C)noc3C)c(C)c(N3CC4(CCN(C(=O)OC)CC4)C3)n2)c1 [EZM2302]
CL in human hepatocytes (scaled) (Hepatocyte stability): < 3 mL/min/kg | CL (plasma clearance) ([1]; CD-1 mouse, IV Bolus 2 mg/kg, 2 mg/kg): 43.2 mL/min/kg | AUC(0-inf) [1, 3]: 772 ng·h/mL | AUC(0-t) [1, 3]: 767 ng·h/mL | Vd [1, 3]: 6.53 L/kg | half-life [1, 3]: 4.22 h | clearance ([1]; male, CD-1, mouse, plasma, iv, 2 mg/kg, CL (plasma clearance), IV Bolus 2 mg/kg): 43 mL/min/kg | AUC(0-inf) [1, 4]: 577 ng·h/mL | AUC(0-t) [1, 4]: 568 ng·h/mL | Cmax [1, 4]: 177 ng/mL | Tmax [1, 4]: 2 h | bioavailability [1, 4]: 15% | half-life [1, 4]: 4.55 h | IC50 ([2]; read-out: IC50, PABP1me2a): 22 nM | IC50 ([2]; read-out: IC50, SmBme0): 20 nM
